The test system of data set [1] is tyrosinase activity in α‐MSH‐stimulated B16F10 cells. As to the kind of experiment: Tyrosinase zymography (L-DOPA staining) in α-MSH-stimulated B16F10 cells. It counts as cell-based, Murine. Particulars: Mus musculus, B16-F10, α-MSH (100 nM)-stimulated B16F10 cells, 48 h, read-out: inhibition of tyrosinase activity / melanogenesis.
Method: ImageJ software was used to determine the intensity of bands.
A day after seeding the B16F10 cells (6×10^4 cells/mL) the culture medium was substituted by fresh one supplemented with 100 nM α‐MSH.
After incubation for 48 h, cells were washed and lysed using phosphate buffer (25 mM, pH 6.8) containing Triton X‐100 (1 %) and phenylmethyl‐sulfonyl fluoride (0.1 mM). Cellular lysates were centrifugated at 13000 rpm for 20 min at 4 °C. The protein content was determined by Bradford method and BSA was used as standard.
SDS‐polyacrylamide gel electrophoresis was used to resolve the protein extracts previously mixed with 10 mM Tris‐HCl buffer, pH 7.0, containing 1 % SDS, without mercaptoethanol.
After running, gel was rinsed in phosphate buffer (0.1 M, pH 7.0) and equilibrated for 30 min twice. […] Tyrosinase activity was visualized in the gel as dark melanin‐containing bands
The target in data set [2] is T1, TYR from Agaricus bisporus (AbTYR) (Agaricus bisporus, UniProt C7FF04). Description: Inhibition of monophenolase activity of AbTYR (L-Tyr as substrate). Particulars: 40 μM (Figure S69). It counts as biochemical. More on the design: purchased Sigma Chemical Co. (St. Louis, MO, USA). The procedure:
Mushroom tyrosinase inhibition assay
6.8). […] Subsequently, 0.05 mL of
L-tyrosine or L-DOPA, respectively.
respect to control sample.
positive standard (10–50 μM).
was used for absorbance measurements.
Kinetic analysis of the tyrosinase inhibition

Data set [3] can be described thus: ABTS radical scavenging antioxidant assay. Particulars: mean ± SD of three independent experiments. The procedure:
ABTS [2,20‐azinobis‐(3‐ethylbenzothiazoline‐6‐sulfonic acid)] assay was used to determine the total free radical‐scavenging capacity of compounds. 6‐hydroxy‐2,5,7,8‐tetramethylchromane‐2‐carboxylic acid (Trolox) was used as the reference antioxidant.[15]
The ABTS⋅^+ method is based on the capacity of an antioxidant to scavenge the free ABTS⋅^+. To produce this radical an aqueous mixture of 7 mM ABTS with 2.45 mM potassium persulfate was required.
The ABTS solution was kept in the dark, at room temperature, for 24 h before use. The ABTS⋅^+ mixture was diluted, and each compound (10 μL) was added to solution. After 1 min of incubation the absorbance was recorded at 734 nm. Afterwards the decrease in A734 was calculated and referred to the Trolox standard curve. Antioxidant activity was expressed as concentration of the compound to give a 50 % reduction in the original absorbance (EC50).

A further data set deals with B16F10 cells. As to the kind of experiment: Cell viability assay (MTT). It is filed as cell-based, Murine. To be noted: 48 h; for cytotoxic effect (MTT): until a concentration of 10 μM. The procedure:
Murine melanoma B16F10 cells (CRL‐6475) were cultured as previous reported.[17]
3‐(4,5‐Dimethylthiazol‐2‐yl)‐2,5‐diphenyltetrazolium bromide (MTT) was used to measure the cells viability. Cells were seeded in 96‐well plates for 24 hours with a density of 5x10^3 for well. Cells were then treated for 48 h with compounds (ranging from 4 μM to 100 μM). After incubation at 37 °C and 5 % of CO2, 100 μL of MTT reagent were added to the cells and incubated 3 h at 37 °C. After adding DMSO the absorbance was determined at 560 nm. The amount of living cells in treated samples relative to untreated controls (100 %) provided the cell viability. The mean value and standard deviation (SD) were calculated from triplicate experiments.
different concentrations of compounds (4-100 μM) and their viability was evaluated by MTT assay. Data
represent mean ± SD of triplicate experiments.

Data set [4] concerns the target T1, TYR from Agaricus bisporus (AbTYR). As to the kind of experiment: Inhibition of diphenolase activity of AbTYR (L-DOPA as substrate).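 On all read-outs here: absorbance measured spectrophotometrically with L-DOPA as substrate, inhibition expressed as percent relative to control sample, IC50 interpolated from dose-response curves.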 Particulars: for IC50: IC50 [μM]±SD, inhibition of diphenolase activity of AbTYR, L-DOPA substrate, three replicates.
Method: (§1) absorbance was measured after 60 or 1 min of incubation time in the reaction mixture containing
(§2) L-tyrosine or L-DOPA, respectively. The inhibitory activity was expressed as inhibition percentage
(§3) calculated by interpolation of the dose-response curves. Kojic acid [5-hydroxy-2-(hydroxymethyl)-
(§4) 4H-pyran-4-one], a fungal secondary metabolite used as skin whitening agent, was employed as a
(§5) positive standard (10–50 μM). A spectrophotometer (Agilent Cary 60 UV-Vis Spectrophotometer)
(§6) The inhibition kinetics on the tyrosinase were studied using Lineweaver-Burk double reciprocal
(§7) plots. The reaction mixture consisted of four different concentrations of the substrate L-DOPA
(§8) (0.6–5 mM), and mushroom tyrosinase in phosphate buffer (0.05 M, pH 6.8). Three different
(§9) concentrations were used for the analysis. Preincubation and measurement time were the same
(§10) as discussed in mushroom tyrosinase inhibition assay. The Michaelis-Menten constant (Km) and
(§11) maximal velocity (Vmax) of tyrosinase were determined by Lineweaver-Burk plots.
Data set [5] shares this target. As to the kind of experiment: Kinetic analysis of AbTYR inhibition (Lineweaver-Burk plots, L-DOPA). Particulars: L-DOPA 0.6–5 mM, three inhibitor concentrations, phosphate buffer pH 6.8.
Method: Kinetics studies were performed in presence of three different concentrations of selected inhibitors, L‐DOPA (0.6–5 mM) and AbTYR in phosphate buffer (0.05 M, pH 6.8).
as §1, §2, §3, §4, §5, §6, §7, §8, §9, §10, §11
The target is the same in data set [6]. On the set-up: purchased Sigma Chemical Co. (St. Louis, MO, USA). To be noted: previous paper; read-out: IC50, inhibition of AbTYR; cited from earlier work.
The conditions of data set [7]: positive control; read-out: EC50 [μM], antioxidant activity (ABTS); cited from earlier work.

“And” between values parts separate entries of the source, which are not always exact repeats. Equal values may be shown once. Read-outs that look alike come from different tables or passages of the source. Bounds are passed on as bounds.

T1 sequence (C7FF04 1-392 limits assumed): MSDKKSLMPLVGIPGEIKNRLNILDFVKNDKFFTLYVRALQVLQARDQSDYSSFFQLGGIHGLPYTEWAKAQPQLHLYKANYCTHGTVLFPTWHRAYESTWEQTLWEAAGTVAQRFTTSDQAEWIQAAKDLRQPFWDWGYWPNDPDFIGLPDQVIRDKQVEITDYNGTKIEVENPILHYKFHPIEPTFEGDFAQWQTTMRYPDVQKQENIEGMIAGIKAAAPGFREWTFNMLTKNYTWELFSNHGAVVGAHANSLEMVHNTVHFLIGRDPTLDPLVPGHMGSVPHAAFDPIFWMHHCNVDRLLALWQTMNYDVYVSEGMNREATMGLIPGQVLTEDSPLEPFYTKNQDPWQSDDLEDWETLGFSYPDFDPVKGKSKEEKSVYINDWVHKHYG

As for `O=c1cc(CO)occ1O` [KA, kojic acid, reference compound], the inhibition at 25 µM in [1] was found to be 17%.

By EC50 is commonly meant the concentration that produces a half-maximal response. For orientation: melting point means the temperature, or range, at which the solid turns liquid. The term IC50 denotes the concentration at which inhibition is half-maximal. Compound `O=C(c1ccccc1Br)N1CCN(c2ccc(O)cc2)CC1` [compound 11, (4‐(4‐Hydroxyphenyl)piperazin‐1‐yl)(2‐bromophenyl)methanone] showed a melting point of 180 to 181 °C. Also, the “inhibitory effect on monophenolase activity of AbTYR” value (shortened to “inhibitory effect”) in data set [2] is “active inhibitors”. For the same compound, the EC50 in data set [3] was 13.2 ± 1.1 µM. Moreover, the “cytotoxic effect (MTT)” value with B16F10 cells is “no cytotoxic effect”. Further, the IC50 in [4] is < 5 µM and 4.5 µM.

Turning to `O=C(c1ccccc1C(F)(F)F)N1CCN(c2ccc(O)cc2)CC1` [compound 17, (4‐(4‐Hydroxyphenyl)piperazin‐1‐yl)(2‐(trifluoromethyl)phenyl)methanone], the melting point is 152 to 153 °C. Further, the “inhibitory effect” value in [2] is “active inhibitors”. The same compound came in with an EC50 in data set [3] of 9 ± 0.9 µM. Further, the “cytotoxic effect (MTT)” value in the data set with B16F10 cells was “no cytotoxic effect”. Half-maximal inhibition in [4] (IC50) required 4.6 ± 0.3 µM.

`Oc1ccc(N2CCNCC2)cc1` [compound 1, 4‐(1‐piperazinyl)phenol]: the “mechanism of inhibition of AbTYR” value in data set [5] is on record as “competitive inhibitor”. This compound returned an IC50 in data set [4] of 28.9 ± 4.9 µM.

`O=C(c1ccccc1Cl)N1CCN(c2ccc(O)cc2)CC1` [compound 7, (4‐(4‐Hydroxyphenyl)piperazin‐1‐yl)(2‐chlorophenyl)methanone] yielded a melting point of 169 to 170 °C. Further, the “inhibitory effect” value in data set [2] is “active inhibitors”. This compound also showed an EC50 in [3] of 13.2 ± 0.5 µM. In addition, the “cytotoxic effect (MTT)” value in the data set on B16F10 cells is “no cytotoxic effect”. In addition, in [4], the IC50 is < 5 µM and 2.6 µM.

With `COc1ccccc1C(=O)N1CCN(c2ccc(O)cc2)CC1` [compound 21, [4‐(4‐Hydroxyphenyl)piperazin‐1‐yl](2‐methoxyphenyl)methanone], the “inhibitory effect” value in [2] is on record as “active inhibitors”. In addition, it took 9.2 ± 0.2 µM to reach a half-maximal effect in [3] (EC50). Moreover, in the data set with B16F10 cells, the “cytotoxic effect (MTT)” value is reported as “no cytotoxic effect”. The “mechanism of inhibition of AbTYR” value in [5] is reported as “competitive inhibitors”. Also, in data set [4], the “fold more potent than reference compound KA” value is listed as “about 3.5 fold” and it took 3.5 ± 0.2 µM to reach half-maximal inhibition (IC50).

Turning to `O=C(c1ccc(Cl)cc1Cl)N1CCN(c2ccc(O)cc2)CC1` [compound 10, (4‐(4‐Hydroxyphenyl)piperazin‐1‐yl)(2,4‐dichlorophenyl)methanone], the melting point lay in the range of 177 to 178 °C. Further, in [1] (1 μM), the inhibition at 1 µM came to 44%. The inhibition at 10 µM in data set [1] (10 μM) worked out at 73%. The inhibition at 25 µM in [1] turned out to be 88%. For the same compound, the “inhibitory effect” value in data set [2] is listed as “active inhibitors”. Further, the midpoint of the response in data set [3], the EC50, lay at 9 ± 0.3 µM. The “cell viability (MTT)” value in the data set on B16F10 cells (until 25 μM) is reported as “good cell viability”. In addition, the “cytotoxic effect (MTT)” value in the data set on B16F10 cells is reported as “no cytotoxic effect”. For the same compound, in [5], the “mechanism of inhibition of AbTYR” value is “competitive inhibitors”. Also, the IC50 in data set [4] worked out at 1.5 ± 0.1 µM.

Regarding `O=C(CN1CCC(Cc2ccccc2)CC1)N1CCN(c2ccc(O)cc2)CC1` [A, 2‐(4‐benzyl‐1‐piperidinyl)‐1‐[4‐(4‐hydroxyphenyl)piperazin‐1‐yl]ethenone], the 50% inhibitory concentration (IC50) in data set [6] was 3.8 µM.

Consider `Cc1c(C)c2c(c(C)c1O)CCC(C)(C(=O)O)O2` (stereo not drawn) [Trolox, 6‐hydroxy‐2,5,7,8‐tetramethylchromane‐2‐carboxylic acid], for which the EC50 in data set [7] was 13 ± 1.1 µM.

Source of the values: article PMC9828493, “Design, Synthesis, and in Vitro Evaluation of 4‐(4‐Hydroxyphenyl)piperazine‐Based Compounds Targeting Tyrosinase” (Chemmedchem, 2022).
